Experimental findings from paper PMC8948797 (International Journal of Molecular Sciences, 2022) are described below.

The experiment has as its system hALN. Briefly: cytoplasmic calcium measurements (Fluo-8) in hALN. Type of experiment: cell-based, human. The following applies: 50 mM KCl, 21–30-day-old hALN, Figure S2. From the text: Figure 3 Characterization of the hALN. (A) 1 s-long depolarizing, and hyperpolarizing pulses injected into a hALN neuron. […] (E) Representative image of Fluo-8-loaded cells and region of interest for individual cells for intensity measurements (white line). […] Data are presented as fluorescence intensity in arbitrary units.
To test the effect of NPFFR2 on the cytoplasmic calcium dynamics, we measured intracellular calcium concentrations using hALNs loaded with Fluo-8. Typically, neurons display calcium oscillations with synchronized patterns, as cells become mature and capable of forming electrical connections with one another. We first recorded basal spontaneous activity in 21–30-day old hALNs and observed synchronized calcium oscillations in 30–70% of cells (Figure 3D–F).
In 8 ± 3% cells, we detected no change, and the remaining 13 ± 5% cells increased their oscillation rate (n = 12).
Cytosolic (Ca2+)i was measured using Ca^2+ indicator Fluo-8. […] Baseline signal was measured at 488 nm excitation and 510 nm emission using inCell analyzer 2000 for 5 min. […] After the background subtraction, calcium responses were processed and analyzed using ImageJ. Mean intensity over time was measured in ROIs including cytoplasmic soma area of individual cells and their traceable extensions. […] Data are presented as fluorescence intensity in arbitrary units. […]

On to `[Cl-].[K+]` [KCl], for which the “cytoplasmic calcium response to KCl” value is reported as “induced a cytoplasmic calcium transient increase”.
